In data set [1] the target is T1, adenosine A1 receptor (Homo sapiens, UniProt P30542).
T1 construct: expressed in transfected cells; host or cells: CHO (Chinese Hamster Ovary)
T1 sequence (P30542 1-326): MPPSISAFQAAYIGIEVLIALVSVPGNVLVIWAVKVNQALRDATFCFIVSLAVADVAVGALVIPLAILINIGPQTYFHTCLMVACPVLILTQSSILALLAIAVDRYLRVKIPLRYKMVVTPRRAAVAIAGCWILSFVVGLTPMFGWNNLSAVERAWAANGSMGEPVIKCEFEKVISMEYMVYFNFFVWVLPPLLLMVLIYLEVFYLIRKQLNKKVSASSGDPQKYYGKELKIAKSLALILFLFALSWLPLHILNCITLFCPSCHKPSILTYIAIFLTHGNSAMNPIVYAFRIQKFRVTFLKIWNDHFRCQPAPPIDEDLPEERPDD
Briefly: Indirect determination of adenosine agonism by gene expression (luciferase), A1 cells. The data set is classed as cell-based. The note with it: CHO cells, luciferase readout, 1 μM forskolin. The text has this: (§1) B-1. Indirect Determination of the Adenosine Agonism by Way of Gene Expression
(§2) Cells of the CHO (Chinese Hamster Ovary) permanent cell line are transfected stably with the cDNA for the adenosine receptor subtypes A1, A2a and A2b. The adenosine A1 receptors are coupled to the adenylate cyclase by way of G, proteins, while the adenosine A2a and A2b receptors are coupled by way of Gs proteins. In correspondence with this, the formation of cAMP in the cell is inhibited or stimulated, respectively. After that, expression of the luciferase is modulated by way of a cAMP-dependent promoter. The luciferase test is optimized, with the aim of high sensitivity and reproducibility, low variance and good suitability for implementation on a robot system, by varying several test parameters, such as cell density, duration of the growth phase and the test incubation, forskolin concentration and medium composition. The following test protocol is used for pharmacologically characterizing cells and for the robot-assisted substance screening:
(§3) The stock cultures are grown, at 37° C. and under 5% CO2, in DMEM/F12 medium containing 10% FCS (fetal calf serum) and in each case split 1:10 after 2-3 days. The test cultures are seeded in 384-well plates with 2000 cells per well and grown at 37° C. for approx. 48 hours. The medium is then replaced with a physiological sodium chloride solution (130 mM sodium chloride, 5 mM potassium chloride, 2 mM calcium chloride, 20 mM HEPES, 1 mM magnesium chloride hexahydrate, 5 mM sodium bicarbonate, pH 7.4). The substances to be tested, which are dissolved in DMSO, are pipetted into the test cultures (maximum final concentration of DMSO in the test mixture: 0.5%) in a dilution series of from 5×10^−11 M to 3×10^−6 M (final concentration). 10 minutes later, forskolin is added to the A1 cells and all the cultures are subsequently incubated at 37° C. for four hours. After that, 35 μl of a solution which is composed of 50% lysis reagent (30 mM disodium hydrogenphosphate, 10% glycerol, 3% TritonX100, 25 mM TrisHCl, 2 mM dithiotreitol (DTT), pH 7.8) and 50% luciferase substrate solution (2.5 mM ATP, 0.5 mM luciferin, 0.1 mM coenzyme A, 10 mM tricine, 1.35 mM magnesium sulfate, 15 mM DTT, pH 7.8) are added to the test cultures, which are shaken for approx. 1 minute and the luciferase activity is measured using a camera system. The ECK values are determined, i.e., the concentrations at which 50% of the luciferase answer is inhibited in the case of the A1 cell, and, respectively, 50% of the maximum stimulation with the corresponding substance is achieved in the case of the A2b and A2a cells.
(§4) Table 1 below lists the ECK values of representative working examples for the receptor stimulation on adenosine A1, A2a and A2b receptor subtypes: […]

Data set [2] has as its target T2, adenosine A2a receptor (Homo sapiens, UniProt P29274).
T2 construct: expressed in transfected cells; host or cells: CHO (Chinese Hamster Ovary)
Briefly: Indirect determination of adenosine agonism by gene expression (luciferase), A2a cells. It counts as cell-based. The note with it: CHO cells, luciferase readout.
Description: as §1, §2, §3, §4

Data set [3] deals with T3, adenosine A2b receptor (Homo sapiens, UniProt P29275).
T3 construct: expressed in transfected cells; host or cells: CHO (Chinese Hamster Ovary)
T3 sequence (P29275 1-332): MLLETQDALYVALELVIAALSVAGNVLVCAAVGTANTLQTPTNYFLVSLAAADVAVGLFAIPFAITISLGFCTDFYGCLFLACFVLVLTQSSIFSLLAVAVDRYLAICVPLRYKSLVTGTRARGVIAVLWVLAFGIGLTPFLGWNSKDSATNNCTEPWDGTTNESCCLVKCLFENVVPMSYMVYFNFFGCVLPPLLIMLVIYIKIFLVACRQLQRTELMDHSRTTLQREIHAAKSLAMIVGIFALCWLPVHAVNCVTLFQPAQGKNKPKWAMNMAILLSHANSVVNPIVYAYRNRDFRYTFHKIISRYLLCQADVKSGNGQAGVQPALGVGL
Briefly: Indirect determination of adenosine agonism by gene expression (luciferase), A2b cells. It counts as cell-based. The note with it: CHO cells, luciferase readout.
Description: as §1, §2, §3, §4

Data set [4] has as its system spontaneously hypertensive rats. Briefly: Measurement of blood pressure and heart rate on awake rats (telemetry). It counts as in vivo. The note with it: maximum reduction in heart rate, oral administration of 3 mg/kg, awake SH rats. Here is the method: B-5. Measurement of Blood Pressure and Heart Rate
Awake spontaneously hypertensive rats (SH-Ratten) carrying an internal transmitter capable of measuring permanently both blood pressure and heart rate (telemetric monitoring of hemodynamic parameters) and sitting in a cage fitted with motion sensors are orally administered test substances in various dosages. Blood pressure and heart rate and changes thereof, and also the movements and the activity of the animals are then recorded and evaluated for 24 hours.

Data set [5] deals with mice (strain: CD1). Briefly: Locomotor action in the treadmill experiment. The note with it: oral. It counts as in vivo. The text has this:
B-7. Test of Adenosine A1 Receptor Agonists on Locomotor Action in the Treadmill Experiment To determine the action of adenosine A1 receptor agonists on locomotor function, the running behavior of mice (strain: CD1) in treadmills (M. Weber et al., Psychopharmacology 2008, in print) is examined. To get the mice accustomed to voluntary use of the treadmill, 2-3 weeks prior to the start of the experiment the animals are isolated in cages with a treadmill and trained. 2 weeks prior to the start of the experiment, the movements of the mice in the treadmill are recorded by a photo cell using a computer, and various running parameters such as, for example, the distance run in a day, the individual distances covered, and also their distribution over the day are determined. According to their natural running behavior, the animals are randomized into groups (8-12 animals) (control group and 1—a plurality of substance groups). After the initial 2-week phase, the animals are treated orally with the substances to be tested. Here, single doses or else increasing dosages (for example 0.3-1-3-10-30 mg/kg) are administered. The substances are tested in two independent experiments. Between 2 experiments, there are at least 3 days where the animals are not administered any substances. The running behavior of the animals is observed and recorded for 24 hours after administration. Evaluation of the running intervals and the total distance covered takes place over a period of several hours during the main activity period of the mice. Effects are stated in percent of the control.

A short description of data set [6]: Determination of the solubility in 5% strength aqueous dextrose solution. The data set is classed as physicochemical. The note with it: result in words. Here is the method: B-8. Determination of Solubility, Stability and Liberation Behavior a) Determination of the Solubility:
The test substance is suspended in 5% strength aqueous dextrose solution. This suspension is shaken at room temperature for 24 h. After ultracentrifugation at 224 000 g for 30 min, the supernatant is diluted with DMSO and analyzed by HPLC. A two-point calibration plot of the test compound in DMSO is used for quantification.
Agilent 1100 with DAD (G1315A), quat. pump (G1311A), autosampler CTC HTS PAL, degasser (G1322A) and column thermostat (G1316A); column: Phenomenex Gemini C18, 5 μm, 50 mm×2 mm; temperature: 40° C.; eluent A: water/phosphoric acid pH 2; eluent B: acetonitrile; flow rate: 0.7 ml/min; gradient: 0-0.5 min 85% A, 15% B; ramp: 0.5-3 min 10% A, 90% B; 3-3.5 min 10% A, 90% B; ramp: 3.5-4 min 85% A, 15% B; 4-5 min 85% A, 15% B.
Agilent 1100 with DAD (G1315A), quat. pump (G1311A), autosampler CTC HTS PAL, degasser (G1322A) and column thermostat (G1316A); column: VDSoptilab Kromasil 100 C18, 3.5 μm, 60 mm×2.1 mm; temperature: 30° C.; eluent A: water+5 ml perchloric acid/I; eluent B: acetonitrile; flow rate: 0.75 ml/min; gradient: 0-0.5 min 98% A, 2% B; ramp: 0.5-4.5 min 10% A, 90% B; 4.5-6 min 10% A, 90% B; ramp: 6.5-6.7 min 98% A, 2% B; 6.7-7.5 min 98% A, 2% B.

pEC50: −log10 of the molar value.

T2 sequence (P29274 whole entry): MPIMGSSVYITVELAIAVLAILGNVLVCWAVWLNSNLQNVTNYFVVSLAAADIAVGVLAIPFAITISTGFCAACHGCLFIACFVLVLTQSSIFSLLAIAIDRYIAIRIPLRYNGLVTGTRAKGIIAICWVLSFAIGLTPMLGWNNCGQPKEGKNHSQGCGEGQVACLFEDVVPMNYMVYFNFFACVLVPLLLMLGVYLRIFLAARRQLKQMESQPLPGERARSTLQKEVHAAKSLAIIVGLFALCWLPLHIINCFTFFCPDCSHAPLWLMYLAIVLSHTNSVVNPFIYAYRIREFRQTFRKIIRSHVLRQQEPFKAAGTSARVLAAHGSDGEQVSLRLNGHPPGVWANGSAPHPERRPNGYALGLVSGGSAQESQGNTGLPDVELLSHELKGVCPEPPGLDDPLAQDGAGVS

A word on the pEC50: it is the negative decadic logarithm of the EC50, by convention in mol/L. Low values mean a large EC50, high ones a small EC50. For `N#Cc1c(SCc2csc(-c3ccc(Cl)cc3)n2)nc(N2CCCC2)c(C#N)c1-c1ccc(OCCO)cc1` [Example 1], the pEC50 in data set [1] is 10.00; in data set [2], 6.17; in data set [3], 7.10. For the same molecule, in data set [4], the Heart rate reduction was −20%. Besides, the “Reduction of the total distance run by 1 mg/kg” value (from here on “Reduction … by 1 mg/kg”) in data set [5] turned out to be 0%. Also, the “Solubility of the active substance” value in data set [6] is recorded as “below the detection limit”.
For `CNc1nc(SCc2csc(-c3ccc(Cl)cc3)n2)c(C#N)c(-c2ccc(OCCO)cc2)c1C#N` [Example 2, 2-({(2-(4-Chlorophenyl)-1,3-thiazol-4-yl)methyl}sulfanyl)-4-(4-(2-hydroxyethoxy)phenyl)-6-(methylamino)pyridine-3,5-dicarbonitrile], in data set [4], the Heart rate reduction is −45%. In addition, the “Solubility of the active substance” value in data set [6] is recorded as “below the detection limit”.
For `CCNc1nc(SCc2csc(-c3ccc(Cl)cc3)n2)c(C#N)c(-c2ccc(OCCO)cc2)c1C#N` [Example 3, 2-({(2-(4-Chlorophenyl)-1,3-thiazol-4-yl)methyl}sulfanyl)-6-(ethylamino)-4-(4-(2-hydroxy-ethoxy)phenyl)pyridine-3,5-dicarbonitrile], the figures for the pEC50 in data set [1], in data set [2] and in data set [3] were 9.52, 6.55 and 6.86, respectively.
As for `CCN(C)c1nc(SCc2csc(-c3ccc(Cl)cc3)n2)c(C#N)c(-c2ccc(OCCO)cc2)c1C#N` [Example 5, 2-({(2-(4-Chlorophenyl)-1,3-thiazol-4-yl)methyl}sulfanyl)-6-(ethyl(methyl)amino)-4-(4-(2-hydroxyethoxy)phenyl)pyridine-3,5-dicarbonitrile], the values for the pEC50 in data set [1], in data set [2] and in data set [3] were 9.30, 6.50 and 6.82, respectively.
In the case of `N#Cc1c(NC2CC2)nc(SCc2csc(-c3ccc(Cl)cc3)n2)c(C#N)c1-c1ccc(OCCO)cc1` [Example 9], the pEC50 is 9.15 in data set [1], 6.55 in data set [2] and 6.64 in data set [3].
Turning to `N#Cc1c(SCc2csc(-c3ccc(Cl)cc3)n2)nc(N2CCCCC2)c(C#N)c1-c1ccc(OCCO)cc1` [Example 13], the “Reduction … by 1 mg/kg” value in data set [5] was found to be 0%.
For the molecule `COCCN(C)c1nc(SCc2csc(-c3ccc(Cl)cc3)n2)c(C#N)c(-c2ccc(OCCO)cc2)c1C#N` [Example 21, 2-({(2-(4-chlorophenyl)-1,3-thiazol-4-yl)methyl}sulfanyl)-4-(4-(2-hydroxyethoxy)phenyl)-6-((2-methoxyethyl)(methyl)amino)pyridine-3,5-dicarbonitrile], the negative-log EC50 (pEC50) is 9.05 in data set [1] and 6.13 in data set [2]. In addition, in data set [5], the “Reduction … by 1 mg/kg” value is on record as 7.5%.
For the molecule `COC1CCN(c2nc(SCc3csc(-c4ccc(Cl)cc4)n3)c(C#N)c(-c3ccc(OCCO)cc3)c2C#N)CC1` [Example 24, 2-({(2-(4-chlorophenyl)-1,3-thiazol-4-yl)methyl}sulfanyl)-4-(4-(2-hydroxyethoxy)phenyl)-6-(4-methoxypiperidin-1-yl)pyridine-3,5-dicarbonitrile], the pEC50 in data set [1] was 9.22; in data set [2], 6.54; in data set [3], 6.17.
As to `N#Cc1c(SCc2csc(-c3ccc(Cl)cc3)n2)nc(N2CCC(F)(F)C2)c(C#N)c1-c1ccc(OCCO)cc1` [Example 26, 2-({(2-(4-Chlorophenyl)-1,3-thiazol-4-yl)methyl}sulfanyl)-6-(3,3-difluoropyrrolidin-1-yl)-4-(4-(2-hydroxyethoxy)phenyl)pyridine-3,5-dicarbonitrile], the pEC50 is 9.30 in data set [1] and 6.00 in data set [3].
Consider `N#Cc1c(NCCF)nc(SCc2csc(-c3ccc(Cl)cc3)n2)c(C#N)c1-c1ccc(OCCO)cc1` [Example 33, 2-({(2-(4-Chlorophenyl)-1,3-thiazol-4-yl)methyl}sulfanyl)-6-((2-fluoroethyl)amino)-4-(4-(2-hydroxyethoxy)phenyl)pyridine-3,5-dicarbonitrile], for which the negative-log EC50 (pEC50) in data set [1] was 10.30; in data set [2], 7.57; in data set [3], 6.05. Besides, the “Reduction … by 1 mg/kg” value in data set [5] was determined as 24%.

For the origin of these results see patent publication US8772498B2, “Alkylamine-substituted dicyanopyridine and amino acid ester prodrugs thereof” (Bayer Intellectual Property GmbH, priority 2009, dated 2014).
